# Experiments:
# [1] = test system: hyperammonemia rat model; assay: Blood ammonia reducing experiment (injection); assay type: in vivo, SD rats; settings: for Reduction rate: blood ammonia, intraperitoneal for 4 days
# Protocol: The animals used in this experiment were 50 healthy male SD rats weighing 250-300 g. They were randomly divided into 5 groups, that is, normal control group, experimental control group (acetamide group), sodium glutamate/acetamide group, Cryptotanshinone/acetamide group and tanshinone IIA/acetamide group. The rats in all those groups except the normal control group were injected intraperitoneally with saline, sodium glutamate injection (with a dose of 410 mg/kg), saline solution of Cryptotanshinone (containing small amount of surface active agent, with a dose of 10 mg/kg), saline solution of tanshinone IIA (containing small amount of surface active agent, with a dose of 10 mg/kg) respectively. 45 min after the injection, the rats in all those groups except normal control group were injected intraperitoneally with 5.5 mmol/kg acetamide. Above injections continued for 4 days. In the 4th day, 30 min after the acetamide injection, blood samples of the rats in each group were collected by eyeball removing method immediately, and processed with the anticoagulant EDTA-Na, then the blood ammonia concentration was determined using conventional method.
# (§1) The dose of sodium glutamate in this example and following examples was settled with the reference of its actual clinical dose. The method for determining the blood ammonia concentration in this example and following examples was enzyme-UV method, the instrument used was HITACHI-7170 automatic analyzer, and the kit used was AMMONIA kit. Calculation formula of decrease ratio in Table 1 and following tables was: Decrease rate=[1−(concentration of treating group−concentration of normal control group)/(concentration of experimental control group−concentration of normal control group)]×100%.
# Using the same experiment method, 90 min after the acetamide injection at the 4th day, blood samples of the rats in each group were collected by eyeball removing method immediately. The blood ammonia concentration was determined.
# [2] = test system: hyperammonemia rat model; assay: Blood ammonia reducing experiment (oral); assay type: in vivo, SD rats
# [3] = Brain tissue entrance experiment; assay type: in vivo, rats; settings: intragastric 300 mg/kg/day for 5 days; brain 1 hour after administration on 5th day; chloroform extract
# Protocol: Experimental animals were healthy male rats. The drug was continually administrated intragastrically at a dose of 300 mg/kg/day, continued for 5 days. 1 hour after administration on the 5th day, rats were put to death and brains were taken out. The brain tissues were homogenized and then extracted with chloroform.
# [4] = test system: healthy male mice; assay: Acute toxicity test in mouse; assay type: in vivo; settings: intragastric
# Description: The drug was administrated intragastrically.
# [5] = test system: high-level brain ammonia animal model; assay: Brain tissue ammonia concentration reducing experiment (oral); assay type: in vivo, SD rats; settings: for Reduction rate: brain tissue ammonia, oral for 4 days, 60 min after acetamide on 4th day; for Brain tissue ammonia concentration: oral for 4 days (sodium glutamate 200 mg/kg, Cryptotanshinone 150 mg/kg), brain 60 min after acetamide on 4th day
# Description: as §1
# Experimental animals were 50 healthy male SD rats, weight between 250-300 g. They were randomly divided into 4 groups, i.e. normal control group, experimental control group ([…]), sodium glutamate/acetamide group, and Cryptotanshinone/acetamide group. […] 45 min after the injection, the rats in all those groups except the normal control group were injected intraperitoneally with 5.5 mmol/kg acetamide. Above injections continued for 4 days. In the 4th day, 60 min after the acetamide injection, the rats of each group were put to death, and brain tissue samples were taken out immediately and homogenized under low temperature condition, then the ammonia concentration in brain tissue was determined by using glutamate dehydrogenase assay.
# The same experiment condition in example 6 was adopted except Sodium Glutamate oral taking (the dose was 200 mg/kg) instead of Sodium Glutamate injection and Cryptotanshinone oral taking (dose 150 mg/kg) instead of Cryptotanshinone injection. In the 4th day, 60 min after the acetamide injection, the rats of each group were put to death and brain tissue samples were taken out immediately. Then, the ammonia concentration in brain tissue was determined.
# [6] = test system: AD rat model; assay: Impaired neuro-behavioral symptoms relieving experiment, Morris water labyrinth; assay type: in vivo, SD rats; parameters: key: —: −Normal; +Dysmnesia (Number of + indicates the extent of memory impairment, and +++++ represents the most severe case.); +++++ represents the most severe case; settings: oral 200 mg/kg/day, D-galactose/acetamide rats
# Description: Experimental animals were 40 healthy male SD rats, weight between 250-300 g. They were randomly divided into 4 groups, i.e. normal control group, model control group A (D-galactose/quinolinic acid group), model control group B (D-galactose/acetamide group), and Cryptotanshinone group (D-galactose/acetamide/Cryptotanshinone group). Morris water labyrinth method was used to evaluate the neuro-behavioral symptoms of rats model caused by subacute senium and chemical damage by D-galactose.
# Normal control group: routine breeding.
# Model control group A (D-galactose/quinolinic acid group): D-galactose was injected subcutaneously (50 mg/kg/day, for 6 weeks) to cause subacute senium in rats. Quinolinic acid (1 μL, containing quinolinic acid 75 nmol) was injected into the rats' bilateral hippocampal gyrus to evidently decrease rats' labyrinth learning and memorizing ability, which served as animal model similar to AD.
# Model control group B (D-galactose/acetamide group): D-galactose was injected subcutaneously (50 mg/kg/day, for 6 weeks) to cause subacute senium in rats; acetamide (10 mmol/kg/day) was injected intraperitoneally for 7 continuous days. […] The treated rats were served as animal model similar to AD.
# Cryptotanshinone group (D-galactose/acetamide/Cryptotanshinone group):
# Simultaneously with subcutaneous injection of D-galactose (50 mg/kg/day, for 6 weeks), Cryptotanshinone was orally administered (the dose was 200 mg/kg/day). 10 mmol/kg acetamide was intraperitoneally injected for 7 continuous days (Cryptotanshinone was orally given at the same time).
# [7] = test system: healthy male mice; assay: 30 days toxicity test in mouse; assay type: in vivo; settings: intragastric 200 mg/kg day for 30 days
# Protocol: The drug was continually administrated intragastrically for 30 days with dose of 200 mg/kg day.
# [8] = test system: high-level brain ammonia animal model; assay: Brain tissue ammonia concentration reducing experiment (injection); assay type: in vivo, SD rats; settings: for Reduction rate: brain tissue ammonia, intraperitoneal for 4 days, 60 min after acetamide on 4th day; for Brain tissue ammonia concentration: intraperitoneal for 4 days (sodium glutamate 410 mg/kg, Cryptotanshinone 30 mg/kg), brain 60 min after acetamide on 4th day
# Description: as §1
# Experimental animals were 50 healthy male SD rats, weight between 250-300 g. They were randomly divided into 4 groups, i.e. normal control group, experimental control group ([…]), sodium glutamate/acetamide group, and Cryptotanshinone/acetamide group. The rats in all those groups except the normal control group were injected intraperitoneally with saline, sodium glutamate solution (with a dose of 410 mg/kg), and saline solution of Cryptotanshinone (containing small amount of surface active agent, with a dose of 30 mg/kg) respectively. 45 min after the injection, the rats in all those groups except the normal control group were injected intraperitoneally with 5.5 mmol/kg acetamide. Above injections continued for 4 days. In the 4th day, 60 min after the acetamide injection, the rats of each group were put to death, and brain tissue samples were taken out immediately and homogenized under low temperature condition, then the ammonia concentration in brain tissue was determined by using glutamate dehydrogenase assay.
# [9] = rats
smiles,measurement,setting,value
Cc1cccc2c3c(ccc12)C1=C(C(=O)C3=O)[C@@H](C)CO1 [Dihydrotanshinone I],Reduction rate,[1]; 90 min after acetamide on 4th day,100%
same,Blood ammonia concentration,"[1]; intraperitoneal for 4 days (sodium glutamate 410 mg/kg, others 10 mg/kg), blood 90 min after acetamide on 4th day",110 µmol/L
same,Reduction rate,"[2]; blood ammonia, oral for 4 days, 90 min after acetamide on 4th day",97%
same,Blood ammonia concentration,"[2]; oral for 4 days (sodium glutamate 200 mg/kg, others 100 mg/kg), blood 90 min after acetamide on 4th day",120 µmol/L
C[C@H]1COC2=C1C(=O)C(=O)c1c2ccc2c1CCCC2(C)C [Cryptotanshinone],Cryptotanshinone detected in brain tissue with HPLC,[3],Significant amount
same,Reduction rate,[1]; 30 min after acetamide on 4th day,60%
same,LD50,[4],> 30 g 1 kg
same,Toxic symptom or death,[4]; dose added to 1.5 g/kg,no toxic symptom or death
same,Reduction rate,[5],45%
same,Brain tissue ammonia concentration,[5],310 nmol/g
same,AD Symptom-Dysmnesia Synthetic Index,[6]; Day 1 after chemical damage,—
same,AD Symptom-Dysmnesia Synthetic Index,[6]; Day 2 after chemical damage,—
same,AD Symptom-Dysmnesia Synthetic Index,[6]; Day 3 after chemical damage,—
same,AD Symptom-Dysmnesia Synthetic Index,[6]; Day 4 after chemical damage,—
same,AD Symptom-Dysmnesia Synthetic Index,[6]; Day 5 after chemical damage,+
same,AD Symptom-Dysmnesia Synthetic Index,[6]; Day 6 after chemical damage,+
same,AD Symptom-Dysmnesia Synthetic Index,[6]; Day 7 after chemical damage,+
same,"Change in growth and development, hematopoiesis function, and biochemical index",[7],no apparent abnormal change or toxic reaction
same,Death of the tested mice,[7],no death
same,Pathology of major organs (anatomical and tissue microscopy inspection),[7],No pathology change
same,Reduction rate,[8],60%
same,Brain tissue ammonia concentration,[8],280 nmol/g
same,Content of Cryptotanshinone in tissues,[9],highest in blood and brain tissue
"N[C@@H](CCC(=O)[O-])C(=O)[O-].[Na+].[Na+] [Sodium Glutamate, reference compound]",Reduction rate,[5],19%
same,Brain tissue ammonia concentration,[5],370 nmol/g
same,Reduction rate,[8],28%
same,Brain tissue ammonia concentration,[8],350 nmol/g

# Source: patent US20040039050A1, “Cryptotanshinone for preventing and alleviating alzheimer's disease” (priority 2001, published 2004)
